{"source": "patent US6610670B2", "about": "“Cyclodextrin-drospirenone inclusion complexes” (Schering Aktiengesellschaft, priority 2000, dated 2003)", "assay": "Phase solubility diagram technique (PSD) in aqueous solutions at 20° C.", "format": "physicochemical", "conditions": "water, thermodynamic from solid, aqueous solution", "description": "The following data were obtained with the phase solubility diagram technique (PSD) In aqueous solutions at 20° C. The stability constants of the inclusion compound from β-CD and drospirenone are given.", "data": [{"smiles": "C[C@]12CCC(=O)C=C1[C@@H]1C[C@@H]1[C@H]1[C@@H]3[C@@H]4C[C@@H]4[C@@]4(CCC(=O)O4)[C@@]3(C)CC[C@@H]12", "note": "[Drospirenone, 6β,7β;15β,16β-dimethylene-3-oxo-17α-pregn-4-ene-21,17-carbolactone]", "values": [{"measurement": "solubility", "result": 41.4, "unit": "µM"}, {"measurement": "solubility", "setting": "value in parentheses", "result": 15.1, "unit": "µg/mL"}]}]}
